From EP4548971A1, “1,4-BENZOTHIAZEPINES AND RELATED COMPOUNDS WITH CYCLOPROPANOL GROUPS AS MULTI-TARGETED DRUGS” (Georg-August-Universität Göttingen Stiftung Öffentlichen …, priority 2023, dated 2025)

Target: T1, SERCA2a (Mus musculus, UniProt O55143)
T1 construct: host or cells: HL-1 cardiac cells
Experiment: NADH-coupled ATPase assay on microsomal membrane vesicles from mouse heart ventricles (mouse SR)
Assay type: biochemical
Design: key to SERCA2a mouse SR effect class: +++: a strong effect, comparable to or greater than that of a known compounds at a given concentration (25 µM in RyR2 R-CEPIA1er assay, 10 µM in caffeine assay and on microsomal membrane vesicles); ++: moderate effect; +: observable effect; -: no effect
Conditions: for SERCA2a mouse SR effect class: 10 µM on microsomal membrane vesicles
Description: All animal procedures were performed in accordance with Directive 2010/63/EU of the European Parliament and the Council on the protection of animals used in research, as well as Animal Welfare Law of the Federal Republic of Germany (Tierschutzgesetz der Bundesrepublik Deutschland, TierSchG). […] All mice were housed with a 12 hours light/dark cycle with free access to food and water. Adult C57BL/6N mice of both genders were sedated with isoflurane in a sealed container and quickly euthanized by cervical dislocation. Heart ventricles were taken out instantly, washed with ice cold PBS plus complete, cut into smaller pieces and snap frozen in liquid nitrogen straight away.
Thawed on ice lysis buffer (10mM EDTA, 10mM HEPES, cOmplete, pH 7.4) was added and the ventricles were homogenized with a Qiagen cellruptor for 20 s. On ice an equal volume of restoration buffer (500 mM sucrose, 10 mM HEPES, cOmplete, pH7.2) was added and briefly mixed. The homogenate was centrifuged at 10000 × g for 20 min at 4° C. The supernatant was collected and centrifuged again for another hour (100000 × g at 4°C). Then the pellet was carefully resuspended in resuspension buffer (250 mM sucrose, 10 mM HEPES, cOmplete, pH 7.2) on ice by pipetting the solution up and down until fully dissolved. The obtained solution was diluted to a protein concentration of 5 µg/µl with the resuspension buffer and the aliquots were snap frozen in liquid nitrogen and then stored at -80 °C until usage.
To determine whether new compounds could increase the SERCA2a activity, HEK-293 microsomes (40 - 150 µg of total protein) or mouse ventricular microsomes (1 - 20 µg of total protein) were diluted in 100 µl of the assay buffer used for measurement of SERCA activity (described below) and incubated at room temperature for 5 minutes prior to the experiments. The measurements of SERCA2a activity were made at 28 °C by using a NADH -coupled ATPase assay. Briefly, the assay buffer contained 60 mM MOPS, 120 mM KCI, 6 mM MgCl2, 1 mM EGTA, 5 mM NaN3, 0.5 mM phosphoenolpyruvate and 1.5 mM CaCl2, pH 7.0. Before the reaction was started by the injection of […] ATP (resulting in 2 mM final concentration in the well), 5 units/mL of both lactate dehydrogenase and pyruvate kinase, 0.5 mM NADH, and 1 µM Ca^2+ ionophore A-23187 (Sigma, C-7522) were added to the diluted sample with or without the tested compound. The 1.5 mM Ca/EGTA buffer has a free Ca^2+ concentration of about 200 µM. The NADH fluorescence decrease was recorded each 2 s for 10 min course on a multiwell plate reader TECAN Spark 20M in 96-well glass bottom plates (MatTek Corporation; Cat. No. PBK96G-1.5-5-F). Fluorescence was evoked by 380 nm excitation wavelength and collected in a bottom-read mode at 425 nm. Exposure - 30 flashes, excitation bandwidth - 10 nm, emission bandwidth - 10 nm. ATP was injected at 30 s. […] The data were analyzed with computer software GraphPad Prism version 8.3.1 (GraphPad Software, Inc.). The difference in signal decrease with and without microsomes was taken as an indicator for the additional ATPase activity performed by SERCA2a. The obtained values for maximal SERCA2a activity were normalized for total protein concentration. Maximal SERCA2a activity values are reported as percentages of control (0.1% DMSO) values. Microsomal samples that were kept on ice until usage and set to 100%.
In an NADH assay, the change in NADH coenzyme fluorescence reflects the level of the consumption of ATP, which can be taken as an indicator of SERCA2 activity [G. B. Warren, P. A. Toon, N. J. Birdsall, A. G. Lee, J. C. Metcalfe, Reconstitution of a calcium pump using defined membrane components. Proc. Natl. Acad. Sci. U.S.A. 1974, 71, 622 - 626]. ATP hydrolysis by SERCA2 is required to pump calcium ions into the SER. A higher rate of ATP hydrolysis corresponds to enhanced SERCA2 ATPase activity that leads to a greater pumping of calcium ions into the SR. […]

T1 sequence (O55143 1-998 isoform O55143-2): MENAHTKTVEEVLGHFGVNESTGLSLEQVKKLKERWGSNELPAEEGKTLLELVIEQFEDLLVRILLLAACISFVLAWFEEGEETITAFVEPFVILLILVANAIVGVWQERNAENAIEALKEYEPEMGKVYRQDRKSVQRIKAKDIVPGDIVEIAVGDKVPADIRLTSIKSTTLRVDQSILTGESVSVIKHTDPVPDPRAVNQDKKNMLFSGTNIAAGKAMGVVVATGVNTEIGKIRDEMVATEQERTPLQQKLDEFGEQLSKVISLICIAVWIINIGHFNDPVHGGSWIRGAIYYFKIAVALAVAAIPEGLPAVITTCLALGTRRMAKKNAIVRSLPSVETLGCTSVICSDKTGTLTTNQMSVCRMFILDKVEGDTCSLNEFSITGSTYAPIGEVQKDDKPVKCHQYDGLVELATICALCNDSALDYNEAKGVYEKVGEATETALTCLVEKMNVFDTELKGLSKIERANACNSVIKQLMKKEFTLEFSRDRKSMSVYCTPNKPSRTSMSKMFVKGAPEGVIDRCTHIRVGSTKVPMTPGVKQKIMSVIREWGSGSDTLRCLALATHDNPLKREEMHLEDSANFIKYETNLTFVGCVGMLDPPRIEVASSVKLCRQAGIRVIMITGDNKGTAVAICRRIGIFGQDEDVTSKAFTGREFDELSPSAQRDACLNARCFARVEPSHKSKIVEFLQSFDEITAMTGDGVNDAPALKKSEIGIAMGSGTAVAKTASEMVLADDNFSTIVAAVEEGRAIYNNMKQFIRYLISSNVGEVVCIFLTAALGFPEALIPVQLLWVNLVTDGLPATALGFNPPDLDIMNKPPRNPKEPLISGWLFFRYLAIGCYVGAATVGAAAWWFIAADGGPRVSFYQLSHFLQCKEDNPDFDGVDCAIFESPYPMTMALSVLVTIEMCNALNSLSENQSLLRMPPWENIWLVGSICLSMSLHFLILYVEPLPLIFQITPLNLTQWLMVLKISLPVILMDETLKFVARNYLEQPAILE

SMILES | SERCA2a mouse SR effect class | effect on ATPase activity, in words (cardiac SER vesicles from mouse heart, 10 µM (3 µM for 14b), vs. 0.1 v/v% DMSO) | EC50 (ATPase activity, range after the semicolon is not explained) [nM]
COc1ccc2c(c1)CN(Cc1ccc(C(=O)O)cc1)CCS2 [ARM210, reference compound] | ++ |  | 
COc1ccc(OCCCNCCCCC2(O)CC2)cc1 [Compound 13b, 1-(4-((3-(4-methoxyphenoxy)propyl)amino)butyl)cyclopropan-1-ol] | + |  | 
COc1ccc2c(c1)CN(CCCCC1(O)CC1)CCS2 [Compound 13d, 1-(4-(7-methoxy-2,3-dihydrobenzo[1,4-f]thiazepin-4(5H)-yl)butyl)cyclopropan-1-ol] | ++ | moderate | 
COc1ccc(SCCCNCCCCC2(O)CC2)cc1 [Compound 13c, 1-(4-((3-((4-Methoxyphenyl)thio)propyl)amino)butyl)cyclopropan-1-ol] | +++ |  | 
COc1ccc2c(c1)CN(CCCCNCCCCC1(O)CC1)CCS2 [Compound 13a, 1-(4-((4-(7-Methoxy-2,3-dihydrobenzo[1,4-f]-thiazepin-4(5H)-yl)butyl)amino)butyl)cyclopropan-1-ol] | + |  | 
COc1ccc2c(c1)CN(CCCCN(CCCCC1(O)CC1)CCCCC1(O)CC1)CCS2 [Compound 14a, 1,1'-(((4-(7-Methoxy-2,3-dihydrobenzo[1,4-f]thiazepin-4(5H)-yl)butyl)azanediyl)bis(butane-4,1-diyl))bis(cyclopropan-1-ol)] | +++ |  | 383
COc1ccc(SCCCN(CCCCC2(O)CC2)CCCCC2(O)CC2)cc1 [Compound 14c, 1,1'-(((3-((4-Methoxyphenyl)thio)propyl)azanediyl)bis(butane-4,1-diyl))bis(cyclopropan-1-ol)] | + |  | 
